Patent US20200056174A1, “COMPOSITIONS AND METHODS OF TREATING CANCER” (DANA-FARBER CANCER INSTITUTE, INC., priority 2016, published 2020)

Tests used:
H1975 cells = assay: Gene expression (qRT-PCR) in treated H1975 NSCLC cells; assay type: cell-based, human; details: 5 μM BAY-11-7085, 18 h, vs DMSO
Experimental: (§1) Cell culture. Human A549/KRAS(G12S), H460/KRAS(Q61H) and H1975/EGFR(L858R/T790M) NSCLC cells (ATCC) were grown in RPMI1640 medium supplemented with 10% heat-inactivated fetal bovine serum (HI-FBS), 100 μg/ml streptomycin, 100 units/ml penicillin and 2 mM L-glutamine. Authentication of the cells was performed by short tandem repeat (STR) analysis. Cells were transfected with lentiviral vectors to stably express a scrambled control shRNA (CshRNA; Sigma), a MUC1 shRNA (MUC1shRNA; Sigma), a NF-κB p65 shRNA (Sigma), MUC1-C or MUC1-C (AQA) (27, 8, 49). Cells were treated with the IκB inhibitor BAY-11-7085 (Sigma) or DMSO as the vehicle control. Cells were also treated with empty nanoparticles (NPs) or GO-203/NPs (39).
(§2) Quantitative real-time, reverse transcriptase PCR (qRT-PCR). Whole cell RNA was isolated using the RNeasy mini kit (Qiagen). The High Capacity cDNA Reverse Transcription kit (Life Technologies) was used to synthesize cDNAs from 2 μg RNA. The SYBR green qPCR assay kit and the ABI Prism Sequence Detector (Applied Biosystems) were used to amplify the cDNAs.
(§3) Immunoblot analysis. Whole cell lysates were prepared in NP-40 lysis buffer and immunoblotted with antibodies against MUC1-C (LabVision), PD-L1 (Cell Signaling Technology) and β-actin (Sigma). Horseradish peroxidase secondary antibodies and enhanced chemiluminescence (GE Healthcare) were used for the detection of immune complexes.

BT-20/MUC1-C cells = assay: Expression (qRT-PCR, immunoblot) in treated BT-20/MUC1-C cells; assay type: cell-based, human; details: vs vehicle
Experimental: (§4) Cell culture. Human BT-549, SUM-159 and mouse Eo771 TNBC cells were propagated in RPMI1640 medium (ATCC, Manassas, Va., USA). Human MDA-MB-468 and MDA-MB-231 TNBC cells were cultured in Dulbecco's modified Eagle's medium (DMEM) (Corning, Manassas, Va., USA). Human BT-20 TNBC cells were cultured in Eagle's Minimum Essential Medium (EMEM) (ATCC). Media were supplemented with 10% heat-inactivated fetal bovine serum, 100 units/ml penicillin, and 100 μg/ml streptomycin. Authentication of the cells was performed by short tandem repeat (STR) analysis. Cells were monitored for Mycoplasma contamination by MycoAlert® Mycoplasma Detection Kit (Lonza, Rockland, Mass., USA). BT-549 and MDA-MB-231 cells were transfected with lentiviral vectors to stably express a scrambled control shRNA (CshRNA; Sigma, St. Louis, Mo., USA) and a NF-κB p65 shRNA (Sigma). Human BT-20 and mouse Eo771 cells were stably transfected to express an empty vector or one encoding MUC1-C. […]
(§5) Quantitative real-time, reverse transcriptase PCR (qRT-PCR). […]
(§6) Immunoblot analysis. […] Immunoreactive complexes were detected using horseradish peroxidase-conjugated secondary antibodies (GE Healthcare Life Sciences, Marlborough, Mass., USA) and an enhanced chemiluminescence (ECL) detection reagents (Perkin Elmer Health Sciences, Waltham, Mass., USA). […] Lysates were analyzed using the Lightswitch Luciferase Assay Kit (Active Motif).

H460 cells = assay: Gene expression (qRT-PCR) in treated H460 NSCLC cells; assay type: cell-based, human; details: 5 μM BAY-11-7085, 18 h, vs DMSO
Experimental: as §1, §2, §3

Eo771/MUC1-C cells = assay: Expression (qRT-PCR, immunoblot) in treated Eo771/MUC1-C cells; assay type: cell-based, mouse; details: vs vehicle
Experimental: as §4, §5, §6

BT-549 cells = assay: Expression (qRT-PCR, immunoblot) in treated BT-549 TNBC cells; assay type: cell-based, human; details: vs vehicle
Experimental: as §4, §5, §6

SMILES	PD-L1 expression (mRNA, qRT-PCR) (H1975 cells)	TLR7 mRNA levels (H1975 cells)	PD-L1 expression (BT-20/MUC1-C cells; 5 μM BAY-11-7085, 24 h)	PD-L1 expression (mRNA, qRT-PCR) (H460 cells)	TLR7 mRNA levels (H460 cells)	MUC1-C→PD-L1 response (PD-L1 mRNA and protein) (Eo771/MUC1-C cells; 5 μM BAY-11-7085, 24 h)	PD-L1 expression (BT-549 cells; 5 μM BAY-11-7085, 24 h)	PD-L1 expression (BT-20/MUC1-C cells; 5 μM JQ1, 48 h)	MUC1-C→PD-L1 response (PD-L1 mRNA and protein) (Eo771/MUC1-C cells; 5 μM JQ1, 48 h)	PD-L1 expression (BT-549 cells; 5 μM JQ1, 48 h)
CC(C)(C)c1ccc(S(=O)(=O)/C=C/C#N)cc1 [BAY-11-7085]	suppresses PD-L1 expression	decreases in TLR7 mRNA levels	suppression of PD-L1 expression	suppresses PD-L1 expression	decreases in TLR7 mRNA levels	inhibited	suppression of PD-L1 expression	–	–	–
Cc1sc2c(c1C)C(c1ccc(Cl)cc1)=N[C@@H](CC(=O)OC(C)(C)C)c1nnc(C)n1-2 [JQ1]	–	–	–	–	–	–	–	downregulation of PD-L1 expression	inhibited	downregulation of PD-L1 expression
